The source of these data is patent US20210330788A1, “USES OF ANTI-BCMA CHIMERIC ANTIGEN RECEPTORS” (CELGENE CORPORATION, priority 2018, published 2021).

This test relates to human multiple myeloma (RPMI-8226) tumors. Description: Sub-cutaneous human multiple myeloma (RPMI-8226) tumor model in NSG mice (FIGS. 8A and 8B). Type of test: in vivo, NOD scid gamma (NSG) mice. The note with it: ˜100mm^3 tumors; 10^7 CAR T cells or Bortezomib; two independent experiments. The procedure:
Hyperactivation and increased apoptosis could negatively impact CAR T cell persistence in patients and ultimately clinical efficacy. The anti-tumor function of anti-BCMA02 CAR T cells and anti-BCMA10 CAR T cells was examined in a mouse tumor model. NOD-scid gamma (NSG) mice with ˜100mm^3 experimental sub-cutaneous human multiple myeloma (RPMI-8226) tumors were treated with 10^7 anti-BCMA02 CAR T cells, 10^7 anti-BCMA10 CAR T cells, or Bortezomib (VELCADE®). RPMI-8226 growth was monitored with calipers.

For the compound `CC(C)C[C@H](NC(=O)[C@H](Cc1ccccc1)NC(=O)c1cnccn1)B(O)O` [Bortezomib], the “RPMI-8226 tumor growth (calipers)” value is on record as “controlled tumor growth”.
